Data published in patent US8871751B2, “Compositions and methods relating to nuclear hormone and steroid hormone receptors including inhibitors of estrogen receptor alpha-mediated gene expression and inhibition of breast cancer” (The Board of Trustees of the University of Illinois, priority 2008, dated 2014).

Tests used:
ZR-75 cells = details: 5 μM; see Wang 2006; cited from earlier work
BT474 cells = details: 5 μM; see Wang 2006; cited from earlier work
[1] = Short-term mouse toxicity study; type: in vivo; details: up to 400 mg/kg
ER negative HeLa cells = details: 10-20 μM; cited from earlier work
[2] = test system: ERα negative MDA-MB-231 cells; test: MDA-MB-231 cell growth / toxicity assay (MTS); type: cell-based, human
Method: ERα negative MDA-MB-231 human breast cancer cells were used to test for generalized toxicity of the test compounds. To parallel the reporter gene assays in stably transfected T47D breast cancer cells, 5,000 MDA-MB-231 cells per well were plated in a 96 well plate. The cells were maintained in the medium described above for the T47D cells. One day after plating, the same concentration of test compound used in the reporter gene assay (up to 30 μM) was added. After 24 h the MTS assay was carried out as described above. A more stringent toxicity assay parallels the assay for inhibition of estrogen-dependent growth of BG-1 cells. 250 MDA-MB-231 cells were plated per well and maintained and assayed as described for the BG-1 cells. Several compounds without detectable toxicity in the 24-h assay inhibited MDA-MB-231 cell growth in the 5-6 day assay.
Assays for Cell Growth and Viability. Cells were maintained in the media listed above containing CD-treated serum for at least 4 days prior to the experiment. To minimize cell aggregation, MCF-7 cells were harvested in 10 mM Hepes, pH 7.4, 1 mM EDTA. Other cell lines were harvested in trypsin-EDTA. 1,000 cells were plated into each well of a 96 well plate. For slow growing ZR-75 cells, 2,000 cells were plated/well. The cells were maintained in medium containing CD-treated serum for 24 hours. At 24 hours the medium was changed and E2 and DMSO vehicle or TPSF in DMSO was added. The medium was replaced after 2 days (except for BT474 cells whose medium was not changed). After 4 days viable cells were determined using a cell viability test, Promega CellTiter 96 Aqueous One Solution Cell Proliferation Assay (MTS) (Promega, Wis.).

GR = target: T1, GR (Rattus norvegicus, UniProt P06536); test: GR transactivation, MMTV-luciferase reporter in T47D cells; type: cell-based, human
T1 construct: expressed in transfected cells; host or cells: T47D/A1-2
T1 sequence (P06536 1-795): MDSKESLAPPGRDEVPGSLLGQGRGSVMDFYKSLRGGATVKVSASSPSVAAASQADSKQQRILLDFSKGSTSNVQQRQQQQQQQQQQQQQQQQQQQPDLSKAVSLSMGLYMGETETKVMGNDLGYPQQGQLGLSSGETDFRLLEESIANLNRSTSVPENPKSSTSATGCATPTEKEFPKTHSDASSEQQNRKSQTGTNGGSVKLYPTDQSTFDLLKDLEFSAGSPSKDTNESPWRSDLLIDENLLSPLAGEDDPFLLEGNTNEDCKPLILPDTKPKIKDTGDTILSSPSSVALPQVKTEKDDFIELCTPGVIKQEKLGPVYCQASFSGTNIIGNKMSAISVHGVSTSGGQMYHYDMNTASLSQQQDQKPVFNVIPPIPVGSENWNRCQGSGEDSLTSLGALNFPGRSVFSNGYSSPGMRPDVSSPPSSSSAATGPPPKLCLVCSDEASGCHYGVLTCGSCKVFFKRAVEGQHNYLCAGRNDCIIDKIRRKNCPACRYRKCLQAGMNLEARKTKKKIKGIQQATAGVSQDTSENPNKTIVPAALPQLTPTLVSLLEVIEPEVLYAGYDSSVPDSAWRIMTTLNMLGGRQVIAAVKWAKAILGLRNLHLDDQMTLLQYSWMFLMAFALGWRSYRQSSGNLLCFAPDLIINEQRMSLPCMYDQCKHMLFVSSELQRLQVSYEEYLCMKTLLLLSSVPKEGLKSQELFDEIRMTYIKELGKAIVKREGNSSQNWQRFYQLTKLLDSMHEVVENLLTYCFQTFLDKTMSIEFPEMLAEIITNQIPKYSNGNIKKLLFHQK
Method: The T47D-KBluc cells stably express an (ERE)3-luciferase reporter gene (38). Cells were maintained in phenol red-free RPMI 1640 with 2 mM L-glutamine, 1.5 g/l sodium bicarbonate, 4.5 g/l glucose, 10 mM Hepes, pH 7.5, 1 mM sodium pyruvate, 10% FBS (Atlanta Biological, Atlanta, Ga.) and antibiotics. Four days before E2 induction, the cells were switched to the above medium, with 10% 2× charcoal-dextran-treated calf serum instead of FBS. 200,000 cells/well were transferred to each well of a 24-well plate. After 24 h the indicated concentrations of the test compounds were added in DMSO and E2 was added to 20 pM. After 24 h cells were washed once in PBS, and 150 μl 1× Passive Lysis Buffer (Promega, Madison Wis.) was used to lyse the cells. Luciferase activity was determined using firefly luciferase reagents from Promega (Madison, Wis.). T47D cells stably transfected to express GR and a mouse mammary tumor virus luciferase reporter that responds to liganded GR and PR were maintained and assayed in medium containing 5 nM progesterone for PR assays, or 2.5 nM dexamethsaone for GR assays, essentially as described (39).
Reporter Gene Assays. TPSF was identified by reporter gene assays comparing the ability of ˜200 compounds structurally related to TPBM (see reference 19) to inhibit transcription of a stably transfected (ERE)3-luciferase reporter gene in T47D-KBluc breast cancer cells (20). AR was assayed in stably transfected HeLa cells and GR was assayed in stably transfected T47D cells maintained as described above. Four days before each experiment the cells were switched to medium containing CD-treated serum as described above. The HeLaAR cells were plated at 100,000 cells/well and the T47D/A1-2 and T47D-KBluc cells were plated at 200,000 cells/well in 1 ml of their respective media in 24-well plates. After 24 hours the indicated concentrations of E2, dihydrotestosterone (DHT) or dexamethasone (Dex) and DMSO vehicle, with or without TPSF, were added to each well. After 24 hours, the cells were washed once in phosphate buffered saline and lysed using 100 μl of 1× Passive Lysis Buffer (Promega, Madison Wis.). Luciferase activity was determined using BrightGlo firefly luciferase reagent from Promega (Madison, Wis.).

disulfide benzamide [DIBA]
inhibition of growth of ZR-75 cells (ZR-75 cells): ~20%
effect on growth of tamoxifen-resistant BT474 cells (BT474 cells): did not inhibit

CCCCCCCc1nc2c([nH]1)c(=O)n(C)c(=O)n2C [Compound 101794]
toxicity in a short-term mouse study [1]: no toxicity

4-hydroxytamoxifen [OHT, reference compound]
effect in ER negative HeLa cells (ER negative HeLa cells): induce caspase-dependent apoptosis
effect on MDA-MB-231 cells ([2]; 10 μM): killed many
effect on MDA-MB-231 cells ([2]; 20 μM): all the cells were killed

O=C(c1ccc(OCCN2CCCCC2)cc1)c1c(-c2ccc(O)cc2)sc2cc(O)ccc12 [raloxifene]
effect in ER negative HeLa cells (ER negative HeLa cells): induce caspase-dependent apoptosis

Cn1c(=O)c2[nH]c(Cc3ccc4ccccc4c3)nc2n(C)c1=O [Compound 14147]
effect on GR (GR): virtually no effect
